Test results taken from patent US20070254881A1, “Pyrazole Derivative” (DAIICHI PHARMACEUTICAL CO., LTD., priority 2004, published 2007).

Columns and labels:
[1] = molecular target: T1, Cyclooxygenase-1 (COX-1) (Ovis aries, UniProt P05979); assay: COX-1 inhibition, COX Inhibitor Screening Assay Kit (PGF2α production, ELISA); assay type: biochemical; settings: compound 50 μM
T1 construct: purchased Cayman Chemical Company 560101
T1 sequence (P05979 25-600): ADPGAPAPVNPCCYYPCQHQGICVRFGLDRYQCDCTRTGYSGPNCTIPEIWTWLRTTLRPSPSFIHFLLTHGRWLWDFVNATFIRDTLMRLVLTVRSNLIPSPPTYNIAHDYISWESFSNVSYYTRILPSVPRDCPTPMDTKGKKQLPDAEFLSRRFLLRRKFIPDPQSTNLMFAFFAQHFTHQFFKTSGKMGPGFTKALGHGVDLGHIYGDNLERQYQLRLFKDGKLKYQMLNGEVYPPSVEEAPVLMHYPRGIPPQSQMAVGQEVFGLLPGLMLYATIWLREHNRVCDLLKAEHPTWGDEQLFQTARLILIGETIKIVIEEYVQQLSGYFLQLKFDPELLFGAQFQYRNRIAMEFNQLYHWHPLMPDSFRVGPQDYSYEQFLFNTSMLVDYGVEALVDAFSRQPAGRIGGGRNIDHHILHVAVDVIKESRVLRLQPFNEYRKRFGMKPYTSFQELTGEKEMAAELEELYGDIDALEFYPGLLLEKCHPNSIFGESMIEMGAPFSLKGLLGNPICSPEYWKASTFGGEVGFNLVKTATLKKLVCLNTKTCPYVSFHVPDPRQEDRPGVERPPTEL
Text: For the measurement of the inhibitory activity of the compounds obtained in the Examples against COX-1 and COX-2, a COX Inhibitor Screening Assay Kit manufactured by Cayman Chemical Company (Catalog Nos. 560101 and 560121) was used.
Before starting the measurement, a reaction buffer, heme, arachidonic acid, SnCl2, EIA buffer, a washing buffer, prostaglandin (PG)-screening EIA standard solution, PG-screening acetylcholinesterase (AchE), a tracer […], and PG-screening EIA antiserum were provided.
A reaction solution containing a compound of the Examples (50 μM) and COX-1, or a reaction solution containing a compound of the Examples (300 μM) and COX-2 was allowed to stand at 37° C. for 10 minutes, then 10 μl of arachidonic acid was added thereto, and the resultant mixture was allowed to stand at 37° C. for 2 minutes. After the reaction, 50 μl of 1 N hydrochloric acid was added to the reaction mixture to stop the reaction, and 100 μl of a SnCl2 solution was added thereto. The resultant mixture was allowed to stand at room temperature for 5 minutes.
50 μl of antiserum (rabbit anti-PGF2α antibody) was added to each well of a 96-well plate coated with mouse anti-rabbit IgG. Then, 50 μl of a solution prepared by diluting the reaction solution for PGF2α production to 2000-folds, and 50 μl of an AchE tracer were added sequentially to the wells, and the plate was kept at room temperature for 18 hours. Each well washed 5 times with the washing buffer to remove excessive AchE tracer, and then 200 μl of Ellman reagent was added to each well. The plate was kept in the dark room for 60 minutes, and then, absorbance at 405 nm was measured.
A standard curve was produced using a PG-screening EIA standard solution, and the amount of PGF2α production was determined from the absorbance obtained as described above. The COX-1 inhibition rate at 50 μM of the compound of the Examples, and the COX-2 inhibition rate at 300 μM of the compound of the Examples were calculated.

[2] = system: collagen-induced platelet aggregation; assay: Platelet aggregation suppressing effect (collagen-induced aggregation in platelet rich plasma); assay type: cell-based; settings: human PRP, 37° C., collagen as inducer, read-out: Inhibitory effect of collagen-induced platelet aggregation IC50
Experimental: Human blood was collected using 3.13% sodium citrate in a volume 1/10 of the blood volume, as an anticoagulant. The collected blood was centrifuged at 180 g for 10 minutes to separate platelet rich plasma (PRP) from the blood. After collecting the PRP fraction in the upper layer, the lower layer was further centrifuged at 1600 g for 10 minutes to fractionate platelet poor plasma (PPP) in the upper layer. One μl of a solution of a compound obtained in the Examples was added to 200 μl of PRP, and the mixture was allowed to stand at 37° C. for 2 minutes. Subsequently, 2 μl of collagen was added thereto, so as to induce platelet aggregation. The platelet aggregation rate was measured using PAM-12C(SSR Engineering, Inc.).

| Structure (SMILES) | COX-1 inhibitory action at 50 μM (% inhibition) [1] [% inhibition] | IC50 [2] [nM] |
| --- | --- | --- |
| COc1ccc(-c2cc(C(=O)N3CCOCC3)nn2-c2ccc(C)nc2)nc1 [Example 1, 4-[5-(5-Methoxy-2-pyridyl)-1-(6-methyl-3-pyridyl)-1H-pyrazole-3-carbonyl]morpholine] | −13.3 | 210 |
| Cc1ccc(-n2nc(C(=O)N3CCC(F)(F)CC3)cc2-c2cnc(C)cn2)cn1 [Example 2, 1-[5-(5-Methyl-2-pyrazinyl)-1-(6-methyl-3-pyridyl)-1H-pyrazole-3-carbonyl]-4,4-difluoropiperidine] | −1.2 | 130 |
| COC1CCN(C(=O)c2cc(-c3cnc(C)cn3)n(-c3ccc(C)nc3)n2)CC1 [Example 3, 1-[5-(5-Methyl-2-pyrazinyl)-1-(6-methyl-3-pyridyl)-1H-pyrazole-3-carbonyl]-4-methoxypiperidine] | −21.2 | 220 |
| COc1ccc(-c2cc(C(=O)N3CCC(OC)CC3)nn2-c2ccc(C)nc2)nc1 [Example 4, 1-[5-(5-Methoxy-2-pyridyl)-1-(6-methyl-3-pyridyl)-1H-pyrazole-3-carbonyl]-4-methoxypiperidine] | −13.3 | 210 |
| COc1ccc(-n2nc(C(=O)N3CCCCN3)cc2-c2ccccn2)nn1 [Example 5, 1-[1-(6-Methoxy-3-pyridazinyl)-5-(2-pyridyl)-1H-pyrazole-3-carbonyl]hexahydropyridazine] | −35.9 | 210 |
| COc1ccc(-n2nc(C(=O)N3CCN(C)C(=O)C3)cc2-n2cccc2)cn1 [Example 10, 1-[1-(6-Methoxy-3-pyridyl)-5-(1H-pyrrol-1-yl)-1H-pyrazole-3-carbonyl]-4-methyl-3-oxopiperazine] | 54.1 | 190 |
| COc1ccc(-n2nc(C(=O)N3CCN(C)CC3)cc2-c2ccc[nH]2)nn1 [Example 12, 1-[1-(6-Methoxy-3-pyridazinyl)-5-(1H-pyrrol-2-yl)-1H-pyrazole-3-carbonyl]-4-methylpiperazine] | 25.9 | 320 |
| COc1ccc(-n2nc(C(=O)N3CCC(OC)CC3)cc2-c2ccc[nH]2)nn1 [Example 14, 1-[1-(6-Methoxy-3-pyridazinyl)-5-(1H-pyrrol-2-yl)-1H-pyrazole-3-carbonyl]-4-methoxypiperidine] | 39.3 | 120 |
| Cc1ccc(-n2nc(C(=O)N3CCOCC3)cc2-c2ccn(C)c2)cn1 [Example 16, 4-[1-(6-Methyl-3-pyridyl)-5-(1-methyl-1H-pyrrol-3-yl)-1H-pyrazole-3-carbonyl]morpholine] | −5.2 | 120 |
| Cc1ccc(-c2cc(C(=O)N3CCC(F)(F)CC3)nn2-c2ccc(C)nn2)nc1 [Example 18, 1-[1-(6-Methyl-3-pyridazinyl)-5-(5-methyl-2-pyridyl)-1H-pyrazole-3-carbonyl]-4,4-difluoropiperidine] | −3.0 | 200 |
| COc1ccc(-n2nc(C(=O)N3CCC(OC)CC3)cc2-c2ccccn2)cn1 [Example 20, 1-[1-(6-Methoxy-3-pyridyl)-5-(2-pyridyl)-1H-pyrazole-3-carbonyl]-4-methoxypiperidine] | −17.0 | 120 |
| COc1ccc(-n2nc(C(=O)N3CCCC3C)cc2-c2ccccn2)nn1 (stereo not shown) [Example 27, 1-[1-(6-Methoxy-3-pyridazinyl)-5-(2-pyridyl)-1H-pyrazole-3-carbonyl]-2-methylpyrrolidine] | −10.2 | 91 |
| COc1ccc(-n2nc(C(=O)N3CCC[C@H]3CF)cc2-c2ccccn2)nn1 [Example 31, (2S)-1-[1-(6-Methoxy-3-pyridazinyl)-5-(2-pyridyl)-1H-pyrazole-3-carbonyl]-2-fluoromethylpyrrolidine] | −10.5 | 180 |
| Cc1ccc(-n2nc(C(=O)N3CCC(F)CC3)cc2-c2cnc(C)cn2)cn1 [Example 32, 1-[5-(5-Methyl-2-pyrazinyl)-1-(6-methyl-3-pyridyl)-1H-pyrazole-3-carbonyl]-4-fluoropiperidine] | −8.4 | 210 |
| COc1ccc(-n2nc(C(=O)N3CCOCC3)cc2-c2cc[nH]n2)cn1 [Example 33, 4-[1-(6-Methoxy-3-pyridyl)-5-(1H-pyrazol-3-yl)-1H-pyrazole-3-carbonyl]morpholine] | −9.5 | 97 |
| COc1ccc(-n2nc(C(=O)N3CCC(OC)CC3)cc2-c2cscn2)cn1 [Example 128, 1-[1-(6-Methoxy-3-pyridyl)-5-(thiazol-4-yl)-1H-pyrazole-3-carbonyl]-4-methoxypiperidine] |  | 100 |
| COc1ccc(-n2nc(C(=O)N3CCCCC3C(N)=O)cc2-c2cscn2)cn1 (stereo not shown) [Example 129, 1-[1-(6-Methoxy-3-pyridyl)-5-(thiazol-4-yl)-1H-pyrazole-3-carbonyl]-2-carbamoylpiperidine] |  | 260 |
| COc1ccc(-n2nc(C(=O)N3CCN(C)CC3)cc2-c2cscn2)nn1 [Example 131, 1-[1-(6-Methoxy-3-pyridazinyl)-5-(thiazol-4-yl)-1H-pyrazole-3-carbonyl]-4-methylpiperazine] |  | 320 |
| COc1ccc(-n2nc(C(=O)N3CCC(OC)CC3)cc2-c2cscn2)nn1 [Example 132, 1-[1-(6-Methoxy-3-pyridazinyl)-5-(thiazol-4-yl)-1H-pyrazole-3-carbonyl]-4-methoxypiperidine] |  | 190 |
| COc1ccc(-n2nc(C(=O)N3CCC(F)(F)CC3)cc2-c2cscn2)nn1 [Example 133, 1-[1-(6-Methoxy-3-pyridazinyl)-5-(thiazol-4-yl)-1H-pyrazole-3-carbonyl]-4,4-difluoropiperidine] |  | 80 |
| COc1ccc(-n2nc(C(=O)N3CCCCN3)cc2-c2cnn(C)c2)cn1 [Example 134, 1-[1-(6-Methoxy-3-pyridyl)-5 (1-methyl-1H-pyrazol-4-yl)-1H-pyrazole-3-carbonyl]hexahydropyridazine] |  | 40 |
| COc1ccc(-n2nc(C(=O)N3CCCOCC3)cc2-c2cnn(C)c2)cn1 [Example 136, 4-[1-(6-Methoxy-3-pyridyl)-5-(1-methyl-1H-pyrazol-4-yl)-1H-pyrazole-3-carbonyl]-1,4-oxazepane] |  | 360 |
| COc1ccc(-n2nc(C(=O)N3CCCOCC3)cc2-c2cscn2)nn1 [Example 137, 4-[1-(6-Methoxy-3-pyridazinyl)-5-(thiazol-4-yl)-1H-pyrazole-3-carbonyl]-1,4-oxazepane] |  | 80 |
| COc1ccc(-n2nc(C(=O)N3CCCCN3)cc2-c2cscn2)cn1 [Example 138, 1-[1-(6-Methoxy-3-pyridyl)-5-(thiazol-4-yl)-1H-pyrazole-3-carbonyl]hexahydropyridazine] |  | 41 |
| COc1ccc(-n2nc(C(=O)N3CCCOCC3)cc2-c2cscn2)cn1 [Example 139, 4-[1-(6-Methoxy-3-pyridyl)-5-(thiazol-4-yl)-1H-pyrazole-3-carbonyl]-1,4-oxazepane] |  | 41 |
